From patent publication US9879043B1, “Synthesis of non-natural cofactor analogs of S-adenosyl-L-methionine using methionine adenosyltransferase” (University of Kentucky Research Foundation, priority 2013, dated 2018)

Key:
Type in all cases: biochemical
[1] = target: Escherichia coli MAT (eMAT) (Escherichia coli, UniProt P0A817); assay: MAT assay, turnover of S/Se-Met analogs to S(Se)AM analogs (RP-HPLC end point); settings: 2 mM Met analog, 1 mM ATP, 5 μM MAT, pH 8, 4 h, 37° C.; average of two assays
Experimental: (§1) Standard uniform assay conditions (2 mM Met analog, 1 mM ATP, 5 μM MAT, 25 mM Tris, 5 mM MgCl2, 50 mM KCl, pH 8, 4 h) were adopted to facilitate this broad assessment. For the thermophilic counterpart (mMAT), reactions were conducted at 65° C., while all other reactions were incubated at 37° C. Production of SAM analogs was determined by an RP-HPLC end point assay to afford complete analysis of the desired SAM analog and/or any corresponding degradation products known to directly derive from the desired SAM analog intermediate. Putative SAM analog and SAM-derived degradative product formation was subsequently confirmed via high-resolution mass spectrometry (HRMS) analysis for all positive reactions (see Table 2).
(§2) To monitor MAT reactions, analytical RP HPLC employed a Luna C18 column (5 μm, 4.6 mm×250 mm; Phenomenex, Torrance, Calif., USA) [gradient of 10% B to 40% B over 15 min, 40% B to 75% B over 5 min (A=10 mM NaH2PO4, 5 mM octane sulfonic acid, pH was adjusted to 3.5 using phosphoric acid; B=acetonitrile) flow rate=1 mL min^−1; A254].
(§3) In vitro MAT reactions were conducted in a volume of 50 μl with 2 mM S/Se-alkylated analog (compounds 2-30), 1 mM ATP and 5 μM purified MAT in 25 mM Tris buffer pH 8.0, 5 mM MgCl2, 50 mM KCl for 4 h. The sMAT and mMAT reactions were conducted at 65° C. while hMATs and eMAT were incubated at 37° C. Reactions were quenched by adding an equal volume of methanol followed by centrifugation (10,000×g for 15 min) to remove the precipitated protein and product formation for each reaction was subsequently analyzed by RP-HPLC using Method D (FIG. 15, first column). For each reaction, percent yield was based upon the integration of species at 254 nm and calculated by dividing the integrated area of product and/or decomposed product by the sum of integrated area of product and/or decomposed product and the remaining substrate. The assays were repeated twice under identical conditions, and Table 2 (and FIG. 5) represents an average value of two assays. The inclusion of adenine and 5′-R-thio-5′-adenosine in these calculations is based upon the established SAM and ATP chemical decomposition pathways which indicate adenine and 5′-R-thio-5′-adenosine to only derive from SAM (not ATP). All putative products were subsequently confirmed by high resolution electrospray ionization (ESI) mass spectra with positive (+) and/or negative (−) mode.

[2] = target: human MAT II catalytic alpha subunit alone (hMAT2A) (Homo sapiens, UniProt P31153); assay: as above; settings: 2 mM Met analog, 1 mM ATP, 5 μM MAT, pH 8, 4 h, 37° C.; average of two assays
Experimental: as §1, with “intermediate.” for “intermediate. Putative SAM analog and SAM-derived degradative product formation was subsequently confirmed via high-resolution mass spectrometry (HRMS) analysis for all positive reactions (see Table 2).”
as §2
as §3, with “The” for “In vitro MAT reactions were conducted in a volume of 50 μl with 2 mM S/Se-alkylated analog (compounds 2-30), 1 mM ATP and 5 μM purified MAT in 25 mM Tris buffer pH 8.0, 5 mM MgCl2, 50 mM KCl for 4 h. The”

[3] = target: human MAT I catalytic subunit alpha (hMAT1A) (Homo sapiens, UniProt Q00266); assay: as above; settings: 2 mM Met analog, 1 mM ATP, 5 μM MAT, pH 8, 4 h, 37° C.; average of two assays
Experimental: as §1, with “intermediate.” for “intermediate. Putative SAM analog and SAM-derived degradative product formation was subsequently confirmed via high-resolution mass spectrometry (HRMS) analysis for all positive reactions (see Table 2).”
as §2
as §3, with “The” for “In vitro MAT reactions were conducted in a volume of 50 μl with 2 mM S/Se-alkylated analog (compounds 2-30), 1 mM ATP and 5 μM purified MAT in 25 mM Tris buffer pH 8.0, 5 mM MgCl2, 50 mM KCl for 4 h. The”

[4] = target: human MAT II catalytic alpha and regulatory beta subunit (hMAT2) (Homo sapiens, UniProt P31153); assay: as above; settings: 2 mM Met analog, 1 mM ATP, 5 μM MAT, pH 8, 4 h, 37° C.; average of two assays
Experimental: as §1, with “intermediate.” for “intermediate. Putative SAM analog and SAM-derived degradative product formation was subsequently confirmed via high-resolution mass spectrometry (HRMS) analysis for all positive reactions (see Table 2).”
as §2
as §3, with “The” for “In vitro MAT reactions were conducted in a volume of 50 μl with 2 mM S/Se-alkylated analog (compounds 2-30), 1 mM ATP and 5 μM purified MAT in 25 mM Tris buffer pH 8.0, 5 mM MgCl2, 50 mM KCl for 4 h. The”

[5] = target: T1, Sulfolobus solfataricus MAT (sMAT) (Saccharolobus solfataricus, UniProt Q980S9); settings: 2 mM analog, 1 mM ATP, 5 μM sMAT, pH 8.0, 4 h at 65° C.; average of two assays
T1 sequence (Q980S9 1-404): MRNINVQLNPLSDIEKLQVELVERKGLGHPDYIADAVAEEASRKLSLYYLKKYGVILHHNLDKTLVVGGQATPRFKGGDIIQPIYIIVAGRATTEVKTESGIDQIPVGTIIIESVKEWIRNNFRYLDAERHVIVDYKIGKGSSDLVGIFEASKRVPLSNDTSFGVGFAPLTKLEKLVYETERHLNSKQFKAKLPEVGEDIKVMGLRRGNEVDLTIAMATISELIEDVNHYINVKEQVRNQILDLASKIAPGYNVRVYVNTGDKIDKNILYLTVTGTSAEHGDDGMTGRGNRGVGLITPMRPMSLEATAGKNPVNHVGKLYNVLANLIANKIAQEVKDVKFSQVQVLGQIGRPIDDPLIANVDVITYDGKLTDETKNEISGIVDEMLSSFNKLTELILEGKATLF
Experimental: In-vitro sMAT assay: In vitro sMAT reactions were conducted in a volume of 50 μl with 2 mM S/Se-alkylated analog, 1 mM ATP and 5 μM purified sMAT in 25 mM Tris buffer pH 8.0, 5 mM MgCl2, 50 mM KCl for 4 h at 65° C. Reactions were quenched by adding an equal volume of methanol followed by centrifugation (10,000×g for 15 min) to remove the precipitated protein and product formation for each reaction was subsequently analyzed by reverse phase HPLC (RP-HPLC) using method described below. For each reaction, percent yield was based upon the integration of species at 254 nm and calculated by dividing the integrated area of product and/or decomposed product by the sum of integrated area of product and/or decomposed product and the remaining substrate. The assays were repeated twice under identical conditions, and Table 4 (and FIG. 17) represents an average value of two assays. The inclusion of adenine and 5′-R-thio-5′-adenosine in these calculations is based upon the established SAM and ATP chemical decomposition pathways which indicate adenine and 5′-R-thio-5′-adenosine to only derive from SAM (not ATP). All putative products were subsequently confirmed by high resolution electrospray ionization (ESI) mass spectra with positive (+) and/or negative (−) mode.
RP-HPLC method: Reactions were quenched by the addition of equal volume of methanol followed by centrifugation at 10,000 g for 15 min to remove precipitated protein before applying on an analytical Varian ProStar HPLC [Luna C18 column, 5 μm, 4.6 mm×250 mm; Phenomenex, Torrance, Calif., USA; gradient of 10% B to 40% B over 15 min, 40% B to 75% B over 5 min (A=10 mM NaH2PO4, 5 mM octane sulfonic acid, pH was adjusted to 3.5 using phosphoric acid; B=acetonitrile) flow rate=1 mL min^−1; A254].

[6] = target: T2, Methanocaldococcus jannaschii MAT (mMAT) (Methanocaldococcus jannaschii, UniProt Q58605); settings: 2 mM Met analog, 1 mM ATP, 5 μM MAT, pH 8, 4 h, 65° C.; average of two assays
T2 sequence (Q58605 1-406): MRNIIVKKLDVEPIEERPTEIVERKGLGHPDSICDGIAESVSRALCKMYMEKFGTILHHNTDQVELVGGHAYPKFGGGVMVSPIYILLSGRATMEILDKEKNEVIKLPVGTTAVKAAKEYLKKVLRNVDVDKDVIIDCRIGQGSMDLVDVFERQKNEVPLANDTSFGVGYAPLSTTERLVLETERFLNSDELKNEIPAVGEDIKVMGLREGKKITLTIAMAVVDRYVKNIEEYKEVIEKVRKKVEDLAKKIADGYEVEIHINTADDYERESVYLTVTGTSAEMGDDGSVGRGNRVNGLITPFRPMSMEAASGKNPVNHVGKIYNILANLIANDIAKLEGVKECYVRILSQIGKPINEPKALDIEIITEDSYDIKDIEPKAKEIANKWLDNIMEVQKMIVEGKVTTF
Experimental: as §1, with “intermediate.” for “intermediate. Putative SAM analog and SAM-derived degradative product formation was subsequently confirmed via high-resolution mass spectrometry (HRMS) analysis for all positive reactions (see Table 2).”
as §2
as §3, with “The” for “In vitro MAT reactions were conducted in a volume of 50 μl with 2 mM S/Se-alkylated analog (compounds 2-30), 1 mM ATP and 5 μM purified MAT in 25 mM Tris buffer pH 8.0, 5 mM MgCl2, 50 mM KCl for 4 h. The”

Structure (SMILES)	Percentage Turn-over eMAT [1]	Percentage Turn-over hMAT2A [2]	Percentage Turn-over hMAT1A [3]	Percentage Turn-over hMAT2 [4]	Percentage Turn-Over (sMAT) [5]	Percentage Turn-over mMAT [6]
CCCSCC[C@H](N)C(=O)O [compound 8, (2S)-2-amino-4-(propylsulfanyl)butanoic acid]	2%	54%	5%	55%	44%	21%
CC(C)SCC[C@H](N)C(=O)O [compound 9, (2S)-2-amino-4-(propan-2-ylsulfanyl)butanoic acid]	0%	2%	2%	2%	53%	8%
C#CCCSCC[C@H](N)C(=O)O [compound 10, (2S)-2-amino-4-(but-3-yn-1-ylsulfanyl)butanoic acid]	0%	12%	0%	40%	30%	16%
C/C=C/CSCC[C@H](N)C(=O)O [compound 11, (2S)-2-amino-4-[(2E)-but-2-en-1-ylsulfanyl]butanoic acid]	2%	5%	2%	25%	27%	30%
C=C(C)CSCC[C@H](N)C(=O)O [compound 12, (2S)-2-amino-4-[(2-methylprop-2-en-1-yl)sulfanyl]butanoic acid]	0%	2%	0%	2%	15%	6%
CCCCSCC[C@H](N)C(=O)O [compound 13, (2S)-2-amino-4-(butylsulfanyl)butanoic acid]	0%	12%	0%	13%	27%	12%
CC(C)CSCC[C@H](N)C(=O)O [compound 14, (2S)-2-amino-4-[(2-methylpropyl)sulfanyl]butanoic acid]	0%	0%	0%	0%	57%	1%
C=C/C=C/CSCC[C@H](N)C(=O)O [compound 16, (2S)-2-amino-4-[(2E)-penta-2,4-dien-1-ylsulfanyl]butanoic acid]	4%	4%	2%	44%	14%	8%
[N-]=[N+]=NCCSCC[C@H](N)C(=O)O [compound 17, (2S)-2-amino-4-[(2-azidoethyl)sulfanyl]butanoic acid]	0%	18%	4%	49%	50%	29%
CC(C)CCSCC[C@H](N)C(=O)O [compound 18, (2S)-2-amino-4-[(3-methylbutyl)sulfanyl]butanoic acid]	0%	0%	0%	0%	36%	1%
CC(C)=CCSCC[C@H](N)C(=O)O [compound 19, (2S)-2-amino-4-[(3-methylbut-2-en-1-yl)sulfanyl]butanoic acid]	3%	4%	0%	6%	12%	13%
[N-]=[N+]=NCCCSCC[C@H](N)C(=O)O [compound 21, (2S)-2-amino-4-[(3-azidopropyl)sulfanyl]butanoic acid]	0%	19%	0%	46%	60%	31%
